Series [1] addresses T1, E. coli β-glucuronidase (Escherichia coli, UniProt P05804).
T1 construct: made in house
Nature of the series: Inhibition of E. coli β-glucuronidase cleavage of diclofenac 1-β-O-acyl glucuronide (HPLC-UV of DCF product). The format is biochemical.

Series [2] deals with DCF-induced small intestinal ulceration. Nature of the series: Diclofenac-induced small intestinal ulceration in mice (NBT staining, morphometry, histopathology). The series is classed as in vivo. The source says: Male C57BL/6J mice were obtained from The Jackson Laboratory (Bar Harbor, Me.). The mice were acclimatized for three weeks before the experiments and were 10-12 weeks of age at the start of the experiments. The animals were kept on a 14:10-hour light:dark cycle. They received mouse chow (Teklad Global Rodent Diet, Harlan Laboratories, Boston, Mass.) and water ad libitum. All studies were approved by the Institutional Animal Care and Use Committee of the University of Connecticut. […] All animals were treated at five hours before the start of the dark cycle. […] Control animals received methyl cellulose and/or Solutol HS-15.
(§1) Enteropathy was assessed and graded as described previously (Ramirez-Alcantara et al., Am. J. Physiol. (Gastrointest. Liver Physiol.), 297:G990-G998 (2009)). Briefly, mice were sacrificed by CO2 inhalation at 18 hours post-DCF (when the development of mucosal injury was maximal). A midline incision was made and blood was obtained via cardiac puncture. Serum was prepared and frozen at −80° C. until use for analysis. The entire small intestine (from the gastroduodenal junction to the ileocecal junction) was removed and opened longitudinally along the anti-mesenteric side. The tissue was rinsed in cold PBS and incubated for 15 minutes in 1 mM nitroblue tetrazolium (NBT) solution containing 16 mM HEPES-NaOH, 125 mM NaCl buffer, 3.5 mM KCl, and 10 mM glucose. Next, the tissues were fixed in 10% zinc formalin for 24 hours, washed, and transferred to 70% ethanol. The intestine was metrically divided into four quartiles of equal length and evaluated at 10× magnification for quantitative and qualitative analysis of mucosal injury, and the lesions were assigned to the respective quartiles. The following scoring system was used: 0, no apparent lesions; 1, small erosions or ulcers (<0 1 mm); 2, medium ulcers (0.1-0.8 mm); 3, large confluent ulcers (>0.8 mm) In addition, the total area of the lesions was quantified by Image J software. The formalin-fixed tissue was embedded in paraffin, and 5-μm sections were stained with hematoxylin/eosin for histopathological evaluation. Serum activity of alkaline phosphatase (ALP) was measured with a kinetic colorimetric kit (BioAssay Systems, Hayward, Calif.).

For series [3], the system named is serum alkaline phosphatase (ALP) activity. The series is described as follows: Serum alkaline phosphatase activity as biomarker of enteropathy. The format is in vivo, mice. The note with it: Inh-1 pretreatment; 18 h post-DCF. The protocol: as §1, with “(Ramirez-[…]” for “(Ramirez-Alcantara”, “297:[…]-[…]” for “297:G990-G998”, “-80°” for “−80°”, “Next, the tissues were fixed in 10% zinc formalin for 24 hours, washed, and transferred to 70% ethanol.” left out, “The following scoring system was used: 0, no apparent lesions; 1, small erosions or ulcers (<0 1 mm); 2, medium ulcers (0.1-0.8 mm); 3, large confluent ulcers (>0.8 mm) In addition, the total area of the lesions was quantified by Image J software.” left out

For series [4] the following is noted: cited from earlier work.
The conditions of series [5]: mouse, in vivo, ip, 60 mg/kg.
Series [6] is described as follows: in vivo. As to conditions: male, C57BL/6, mouse, 60 mg/kg.
For series [7] the following is noted: humans, cited from earlier work.
Series [8] can be described thus: Pharmacokinetic profiling of diclofenac in mice with or without Inh-1 pretreatment. As to conditions: male, C57BL/6, mouse, in vivo, ip, 60 mg/kg.

“Also recorded” adds a separate entry of the source. Some results are limits rather than exact numbers.

T1 sequence (P05804 whole entry): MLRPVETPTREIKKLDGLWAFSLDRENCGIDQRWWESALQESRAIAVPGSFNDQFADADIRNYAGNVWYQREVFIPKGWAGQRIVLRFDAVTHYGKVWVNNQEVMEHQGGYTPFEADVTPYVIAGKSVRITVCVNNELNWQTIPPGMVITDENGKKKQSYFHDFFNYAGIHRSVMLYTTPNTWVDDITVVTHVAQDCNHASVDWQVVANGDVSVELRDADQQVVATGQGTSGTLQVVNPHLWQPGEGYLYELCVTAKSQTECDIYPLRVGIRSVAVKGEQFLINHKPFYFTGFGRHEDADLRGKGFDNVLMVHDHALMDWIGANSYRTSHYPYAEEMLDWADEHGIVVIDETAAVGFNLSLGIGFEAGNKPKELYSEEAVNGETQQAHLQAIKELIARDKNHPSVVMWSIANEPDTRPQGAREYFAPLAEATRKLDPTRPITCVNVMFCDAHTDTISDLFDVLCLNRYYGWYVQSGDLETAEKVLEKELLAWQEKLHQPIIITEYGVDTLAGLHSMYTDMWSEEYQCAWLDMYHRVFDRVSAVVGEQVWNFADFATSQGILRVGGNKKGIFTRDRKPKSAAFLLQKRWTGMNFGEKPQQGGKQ

With `CCOc1ccc(NC(=S)N(CCO)Cc2cc3cc(C)cc(C)c3[nH]c2=O)cc1` [Inh-1, ((6,8-dimethyl-2-oxo-1,2-dihydroquinolin-3-yl)methyl)-3-(4-ethoxyphenyl)-1-(2-hydroxyethyl)thiourea], in series [1] (increasing Inh-1 concentrations, DCF-AG 4 mM, FIG. 1B), the “inhibition of product (free DCF) formation” value is recorded as “concentration-dependent inhibition of product formation”. Besides, the inhibition at 100 µM in series [1] (read-out: inhibition of release of free DCF from DCF-AG) was more than 90%. In addition, the “ulcer size and number, quartiles 3 and 4” value in series [2] (Inh-1 10 μg/mouse po b.i.d. x2 days before DCF 60 mg/kg ip, 18 h post-DCF) was “greatly reduced both in size and number”. Further, the “histopathology: ulcers with loss of villi and inflammatory response” value in series [2] (Inh-1 pretreatment plus DCF 60 mg/kg ip) is recorded as “largely prevented these changes”. For the same molecule, the “NBT-positive areas of ulceration, macroscopic” value in series [2] (Inh-1 pretreatment plus DCF 60 mg/kg ip, jejunum, 18 h) is “absence of any large ulceration; also recorded: only few isolated and small NBT-positive areas”. For the same molecule, the “protection from DCF-induced acute small intestinal injury” value in series [2] (mice, overall conclusion) is given as “significant protection”. Also, in series [3], the “DCF-associated decrease in serum alkaline phosphatase (ALP) activity” value is on record as “largely prevented”.
Consider `O=C(Cc1ccccc1Nc1c(Cl)cccc1Cl)O[C@@H]1O[C@H](C(=O)O)[C@@H](O)[C@H](O)[C@H]1O` [DCF-AG, diclofenac 1-β-O-acyl glucuronide], for which, in series [1] (various concentrations, data not shown), the “conversion of DCF-AG to its aglycone by purified enzyme (substrate)” value was “converted DCF-AG (various concentrations) to its aglycone”. Also, in series [4] (gallbladder-cannulated mice), the “amount of biliary DCF-AG relative to parent DCF” value is on record as 117 fold and the “amount of biliary DCF-AG relative to ring-hydroxylated DCF” value is listed as 22 fold. For the same molecule, the “amount of DCF-AG in bile” value in series [4] (mice) was “approximately 4 % of the dose”.
As for `O=C(O)Cc1ccccc1Nc1c(Cl)cccc1Cl` [Diclofenac, diclofenac], the “small intestinal ulceration caused by DCF alone” value in series [2] (DCF 60 mg/kg ip, single dose, 18 h) was “developed typical nitroblue tetrazolium-(NBT-) positive areas of ulceration in the jejunum and ileum”. The “apparent Cmax” value in series [5] is “high micromolar range”. In series [4] (during 60 minutes after intravenous 5 mg/kg in mice), the “[14C]-DCF equivalents appearing in bile” value is reported as 42%. Besides, in series [6], the Tmax was determined as 9.6 min. In series [6] (ip), the AUC(0-t) was determined as 208 µg·h/mL, the Cmax turned out to be 265 µg/mL and the Tmax was 10 min. Further, the “total DCF clearance in the form of glucuronides” value in series [7] (including AGs of 4′-hydroxy-DCF) is recorded as “approximately 75%”. The “DCF excreted via bile” value in series [7] (initial studies) was 10-20%. Also, in series [8], the half-life was 169 min.

A word on the inhibition: it is how much of the control response was suppressed. One may read the Tmax as the time at which the peak concentration occurs. Usually AUC(0-t) stands for the area under the concentration-time curve up to a stated or last time point. Read a low AUC(0-t) as less exposure. By Cmax is commonly meant the peak of the concentration-time curve. For orientation: half-life means the time in which the quantity being followed falls by half.

The values are drawn from patent US20150011542A1, “Methods of Treating Adverse Intestinal Effects of Non-Steroidal Anti-Inflammatory Drugs” (University of Connecticut, priority 2012, published 2015).
